Measured values taken from ChEMBL document CHEMBL3865792, “Antioxidant and antitumor activity of trolox, trolox succinate, and α-tocopheryl succinate conjugates with nitroxides” (Eur J Med Chem, 2016).

Key:
[1] = Cytotoxicity against human HepG2 cells assessed as reduction in cell viability after 72 hrs by MTT assay; type: functional, cell-based; conditions: HepG2, 72 h
[2] = Ratio of IC50 for human HEPG2 cells to concentration causing antioxidant activity in Salmonella typhimurium TA102 harboring […] mutant; type: functional
[3] = Cytotoxicity against human MCF7 cells assessed as reduction in cell viability at 300 uM after 72 hrs by MTT assay; type: functional; conditions: MCF7, 72 h
[4] = tested on: Salmonella enterica subsp. enterica serovar Typhimurium; assay: Antioxidant activity in Salmonella typhimurium TA102 harboring […] mutant assessed as inhibition of t-BuO2H-dependant mutant formation at 30 uM preincubated with compound followed by t-BuO2H addition after 48 hrs by Ames test; type: functional
[5] = Cytotoxicity against human MT4 cells assessed as reduction in cell viability at 300 uM after 72 hrs by MTT assay; type: functional; conditions: MT4, 72 h
[6] = Cytotoxicity against human U937 cells assessed as reduction in cell viability after 72 hrs by MTT assay; type: functional, cell-based; conditions: U-937, 72 h
[7] = Cytotoxicity against human RPMI8226 cells assessed as reduction in cell viability after 72 hrs by MTT assay; type: functional, cell-based; conditions: RPMI-8226, 72 h
[8] = Cytotoxicity against human MCF7 cells assessed as reduction in cell viability after 72 hrs by MTT assay; type: functional, cell-based; conditions: MCF7, 72 h
[9] = Ratio of IC50 for human MT4 cells to concentration causing antioxidant activity in Salmonella typhimurium TA102 harboring […] mutant; type: functional
[10] = Cytotoxicity against human HepG2 cells assessed as reduction in cell viability at 300 uM after 72 hrs by MTT assay; type: functional; conditions: HepG2, 72 h
[11] = Genotoxicity in Escherichia coli PQ37 expressing lacZ gene assessed as ratio of inducible beta-galactosidase activity to alkaline phosphatase activity at 30 mM after 2 hrs by SOS-chromotest relative to control; type: toxicity; conditions: Escherichia coli PQ37 cells expressing lacZ gene, read-out: FC
[12] = Cytotoxicity against mouse LMTK cells assessed as reduction in cell viability at 300 uM after 72 hrs by MTT assay; type: toxicity; conditions: read-out: INH
[13] = tested on: Salmonella enterica subsp. enterica serovar Typhimurium; assay: Antioxidant activity in Salmonella typhimurium TA102 harboring […] mutant assessed as inhibition of t-BuO2H-dependant mutant formation at 3 uM preincubated with compound followed by t-BuO2H addition after 48 hrs by Ames test; type: functional
[14] = Cytotoxicity against hamster AG17-1 cells assessed as reduction in cell viability at 300 uM after 72 hrs by MTT assay; type: toxicity, cell-based, Cricetulus griseus; conditions: Chinese hamster, read-out: INH
[15] = tested on: Salmonella enterica subsp. enterica serovar Typhimurium; assay: Antioxidant activity in Salmonella typhimurium TA102 harboring […] mutant assessed as inhibition of t-BuO2H-dependant mutant formation at 0.3 uM preincubated with compound followed by t-BuO2H addition after 48 hrs by Ames test; type: functional
[16] = Cytotoxicity against human MT4 cells assessed as reduction in cell viability after 72 hrs by MTT assay; type: functional, cell-based; conditions: MT4, 72 h
[17] = Ratio of IC50 for human U937 cells to concentration causing antioxidant activity in Salmonella typhimurium TA102 harboring […] mutant; type: functional, U-937
[18] = Cytotoxicity against mouse LMTK cells assessed as reduction in cell viability after 72 hrs by MTT assay; type: toxicity
[19] = Cytotoxicity against hamster AG17-1 cells assessed as reduction in cell viability after 72 hrs by MTT assay; type: toxicity, cell-based, Cricetulus griseus; conditions: Chinese hamster
[20] = Ratio of IC50 for human MCF7 cells to concentration causing antioxidant activity in Salmonella typhimurium TA102 harboring […] mutant; type: functional
Salmonella typhimurium [21] = assay: Genotoxicity in Salmonella typhimurium TA102 harboring […] mutant assessed as frequency of reversion from histidine auxotrophy to prototrophy at 30 mM after 48 hrs by Ames test (reference value: 209 +/- 10 No _unit); type: toxicity, organism-based; conditions: salmonella enterica subsp. enterica serovar typhimurium, 30000 µM
[22] = Ratio of IC50 for human RPMI8226 cells to concentration causing antioxidant activity in Salmonella typhimurium TA102 harboring […] mutant; type: functional, RPMI-8226
[23] = Ratio of IC50 for human CEM13 cells to concentration causing antioxidant activity in Salmonella typhimurium TA102 harboring […] mutant; type: functional
[24] = Cytotoxicity against human CEM13 cells assessed as reduction in cell viability after 72 hrs by MTT assay; type: functional, cell-based; conditions: CEM13, 72 h
[25] = Cytotoxicity against human RPMI8226 cells assessed as reduction in cell viability at 300 uM after 72 hrs by MTT assay; type: functional; conditions: RPMI-8226, 72 h
[26] = Cytotoxicity against human CEM13 cells assessed as reduction in cell viability at 300 uM after 72 hrs by MTT assay; type: functional; conditions: CEM13, 72 h
[27] = Genotoxicity in Escherichia coli PQ37 expressing lacZ gene assessed as ratio of inducible beta-galactosidase activity to alkaline phosphatase activity at 3 mM after 2 hrs by SOS-chromotest relative to control; type: toxicity; conditions: Escherichia coli PQ37 cells expressing lacZ gene, read-out: FC
Salmonella typhimurium [28] = assay: Genotoxicity in Salmonella typhimurium TA102 harboring […] mutant assessed as frequency of reversion from histidine auxotrophy to prototrophy at 0.35 mM after 48 hrs by Ames test (reference value: 209 +/- 10 No _unit); type: toxicity, organism-based; conditions: salmonella enterica subsp. enterica serovar typhimurium, 350 µM
[29] = Genotoxicity in Escherichia coli PQ37 expressing lacZ gene assessed as ratio of inducible beta-galactosidase activity to alkaline phosphatase activity at 1 mM after 2 hrs by SOS-chromotest relative to control; type: toxicity; conditions: Escherichia coli PQ37 cells expressing lacZ gene, read-out: FC

Compound	IC50 [1] [µM]	Ratio [2]	inhibition at 300 µM [3] [%]	inhibition [4] [%]	IC50 [6] [µM]	IC50 [7] [µM]	IC50 [8] [µM]	Ratio [9]	inhibition at 300 µM [10] [%]	cytotoxicity at 72 h, 300 µM [12] [%]	inhibition [13] [%]	cytotoxicity at 72 h, 300 µM [14] [%]	inhibition [15] [%]	IC50 [16] [µM]	Ratio [17]	IC50 at 72 h [18] [µM]	IC50 at 72 h [19] [µM]	Activity (Salmonella typhimurium [21])	IC50 [24] [µM]	inhibition at 300 µM [25] [%]	other results
Cc1c(C)c2c(c(C)c1OC(=O)CCC(=O)O)CCC(C)(C(=O)NC1CC(C)(C)N([O])C1(C)C)O2 (stereo not given)	> 300	100 - 1000	25	33	163	> 300	> 300	100 - 1000	25	0	11	27	6	> 300	100 - 1000	> 300	> 300	221	205	28	inhibition at 300 µM [5]: 45%; fold induction at 2 h, 30000 µM [11]: 1.2; Ratio [20]: 100 - 1000; Ratio [22]: 100 - 1000; Ratio [23]: 100 - 1000
Cc1c(C)c2c(c(C)c1OC(=O)CCC(=O)O)CCC(C)(C(=O)NCC1CC(C)(C)N([O])C1(C)C)O2 (stereo not given)	> 300	100 - 1000	24	18	24	> 300	> 300	100 - 1000	18	0	22	30	31	> 300	100 - 1000	> 300	> 300	205	> 300	22	inhibition at 300 µM [5]: 46%; fold induction at 2 h, 30000 µM [11]: 1.3; inhibition at 300 µM [26]: 31%; Ratio [20]: 100 - 1000; Ratio [22]: 100 - 1000; Ratio [23]: 100 - 1000
CC1(C)CC(NC(=O)CCC(=O)O)C(C)(C)N1[O] (stereo not given)	> 300	100 - 1000	17	52	241	> 300	> 300	100 - 1000	0	0	48	19	38	> 400	100 - 1000	> 300	> 300	199	> 400	44	fold induction at 2 h, 3000 µM [27]: 1.2; Ratio [20]: 100 - 1000; Ratio [22]: 100 - 1000; Ratio [23]: 100 - 1000
CC1(C)CC(NC(=O)CCC(=O)O)CC(C)(C)N1[O]	> 300	100 - 1000	20	41	170	> 300	> 300	100 - 1000	0	18	49	0	36	> 400	100 - 1000	> 300	> 300	211	> 400	12	fold induction at 2 h, 3000 µM [27]: 1.3; Ratio [20]: 100 - 1000; Ratio [22]: 100 - 1000; Ratio [23]: 100 - 1000
Cc1c(C)c2c(c(C)c1OC(=O)CCC(=O)O)CCC(C)(C(=O)O)O2 (stereo not given)	242		15	35	120	63	> 300			7	35	27	35	285		> 300	> 300	216	191		inhibition at 300 µM [5]: 34%; fold induction at 2 h, 30000 µM [11]: 1.1
Cc1c(C)c2c(c(C)c1OC(=O)CCC(=O)O)CCC(C)(C(=O)NC1CC(C)(C)N([O])C(C)(C)C1)O2 (stereo not given)	> 300	100 - 1000	15	19	123	> 300	> 300	100 - 1000	44	0	18	36	10	165	100 - 1000	> 300	> 300	216	> 300	14	fold induction at 2 h, 30000 µM [11]: 1.1; inhibition at 300 µM [26]: 30%; Ratio [20]: 100 - 1000; Ratio [22]: 100 - 1000; Ratio [23]: 100 - 1000
Cc1c(C)c2c(c(C)c1O)CC[C@@](C)(CCC[C@H](C)CCC[C@H](C)CCCC(C)C)O2 [ALPHA-TOCOPHEROL]	> 300		37	15	100	> 300	> 300		0	28	13	12	6	165		> 300	> 300	217	> 300	0	fold induction at 2 h, 3000 µM [27]: 1.28; inhibition at 300 µM [26]: 35%
Cc1c(C)c2c(c(C)c1O)CCC(C)(C(=O)O)O2 (stereo not given) [TROLOX]	> 300		5	4.7	300	> 300	> 300		14	0	14.5	0	8.8	200		> 300	> 300	230	> 300	0	fold induction at 2 h, 3000 µM [27]: 1; inhibition at 300 µM [26]: 37%
CC(C)(C)OO [TERT-BUTYL HYDROPEROXIDE]																					Activity (Salmonella typhimurium [28]): 482; fold induction at 2 h, 1000 µM [29]: 11.6
CC1(C)CC(CNC(=O)CCC(=O)O)C(C)(C)N1[O] (stereo not given)	> 300	100 - 1000	24	11	282	> 300	> 300	100 - 1000	0	0	21	0	15	> 400	100 - 1000	> 300	> 300	219	> 400	13	fold induction at 2 h, 3000 µM [27]: 1.3; Ratio [20]: 100 - 1000; Ratio [22]: 100 - 1000; Ratio [23]: 100 - 1000
